For eight compounds, GI50 and TGI results are on record in PubChem BioAssay (NCI).

Among the test systems are COLO 205 colon; SF-268 CNS; CAKI-1 renal; UACC-62 melanoma; MDA-MB-231 breast; TK-10 renal; SF-539 CNS; MALME-3M melanoma; IGROV1 ovarian; MDA-MB-435.
Test in all cases: DTP human tumour cell line panel, 48 h

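Values below derive from 48-hour exposures of cells grown in 96-well plates, with endpoints linearly interpolated between the two concentrations bracketing the appropriate inhibition level. GI50 is the concentration that inhibits growth by half. The concentration for full growth arrest is given as TGI.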

Regarding `C=C1C(=O)O[C@H]2[C@H]1CC/C(Cn1cc(-c3cccc(Cl)c3)nn1)=C\CC[C@@]1(C)O[C@@H]21`, the GI50 was 0.417 µM in the test on COLO 205 colon; 1.59 µM in the test on SF-268 CNS; 0.869 µM with CAKI-1 renal; 0.625 µM in the test on UACC-62 melanoma; 1.09 µM with MDA-MB-231 breast; 0.992 µM in the test on TK-10 renal. Further, the GI50 in the test on SF-539 CNS is 0.258 µM; with MALME-3M melanoma, 1.2 µM; in the test on IGROV1 ovarian, 0.73 µM; with MDA-MB-435, 0.591 µM. Also, the TGI with COLO 205 colon was determined as 1.69 µM; in the test with SF-268 CNS it was 3.46 µM; in the test on CAKI-1 renal, 2.13 µM; in the test on UACC-62 melanoma, 2.08 µM; in the test on MDA-MB-231 breast, 2.91 µM; with TK-10 renal, 2.15 µM. The TGI with SF-539 CNS is 0.791 µM; with MALME-3M melanoma, 2.92 µM; in the test on IGROV1 ovarian it was 2.41 µM; in the test on MDA-MB-435 it was 1.98 µM.

For `O=C(Nc1cccc(-n2cc(-c3ccncc3)c(-c3ccc(O)c(Cl)c3)n2)c1)c1cc(C(F)(F)F)cc(C(F)(F)F)c1`, the GI50 with COLO 205 colon was 9.82 µM; in the test on SF-268 CNS, 7.26 µM; with CAKI-1 renal, 2.52 µM; in the test with UACC-62 melanoma, 10.6 µM; in the test with MDA-MB-231 breast, 0.889 µM; in the test with TK-10 renal, 10.9 µM. The GI50 is 4.78 µM with SF-539 CNS, 9.79 µM with MALME-3M melanoma, 11.2 µM in the test on IGROV1 ovarian and 4.43 µM in the test with MDA-MB-435. In addition, the TGI was 23.5 µM in the test on COLO 205 colon; greater than 50 µM in the test on SF-268 CNS; greater than 50 µM in the test with CAKI-1 renal; greater than 50 µM with UACC-62 melanoma; 2.17 µM in the test on MDA-MB-231 breast; greater than 50 µM with TK-10 renal. For the same compound, the TGI is 38.9 µM with SF-539 CNS, 41.9 µM in the test with MALME-3M melanoma, greater than 50 µM in the test with IGROV1 ovarian and greater than 50 µM with MDA-MB-435.

As to `CCOc1ccc2c(c1)CN(Cc1ccc(Cl)cc1)CO2`, the GI50 with COLO 205 colon is 19 µM; in the test on SF-268 CNS, 28.1 µM; with CAKI-1 renal it was 16.3 µM; in the test with UACC-62 melanoma, 16.1 µM; in the test with MDA-MB-231 breast, 12.9 µM; with TK-10 renal, 19 µM. Also, the GI50 in the test on SF-539 CNS is 15.8 µM; in the test on MALME-3M melanoma it was 14.8 µM; in the test on IGROV1 ovarian, 23 µM; with MDA-MB-435, 15.2 µM. Besides, the TGI is 36.1 µM with COLO 205 colon; greater than 100 µM in the test on SF-268 CNS; 43.2 µM in the test on CAKI-1 renal; 31.2 µM in the test on UACC-62 melanoma; 34.6 µM in the test on MDA-MB-231 breast; 64.8 µM in the test on TK-10 renal. Also, the TGI was determined as 32.4 µM with SF-539 CNS, 29.5 µM in the test on MALME-3M melanoma, 63.7 µM with IGROV1 ovarian and 29.5 µM with MDA-MB-435.

In the case of `CC(c1ccccc1)[C@@H](C(=O)Nc1ccc(I)cc1F)N1C(=O)N[C@H](c2ccc(OC[C@H](O)CO)cc2)C1=O` (stereo not given in full), the GI50 in the test with COLO 205 colon was 0.0368 µM; in the test on SF-268 CNS it was 15.2 µM; with CAKI-1 renal, 16.2 µM; in the test on UACC-62 melanoma, 0.0551 µM; in the test with MDA-MB-231 breast it was 1.56 µM; in the test with TK-10 renal, 4.86 µM. Besides, the GI50 in the test with SF-539 CNS is 15.5 µM; in the test with MALME-3M melanoma it was 0.0025 µM; with IGROV1 ovarian, 2.04 µM; in the test with MDA-MB-435, 0.0817 µM. Besides, the TGI in the test with COLO 205 colon is greater than 25 µM; in the test on SF-268 CNS, greater than 25 µM; in the test on CAKI-1 renal, greater than 25 µM; in the test with UACC-62 melanoma, 2.25 µM; in the test with MDA-MB-231 breast it was greater than 25 µM; in the test on TK-10 renal, greater than 25 µM. Further, the TGI in the test on SF-539 CNS is greater than 25 µM; with MALME-3M melanoma, 0.0856 µM; in the test on IGROV1 ovarian, greater than 25 µM; in the test on MDA-MB-435, greater than 25 µM.

For the compound `CN(C)Cc1ccc(C(C)(C)C)cc1-c1cc(C(C)(C)C)ccc1CN(C)C`, the total growth inhibition concentration (TGI) in the test on COLO 205 colon is 37.9 µM; in the test on SF-268 CNS, greater than 100 µM; in the test with CAKI-1 renal, greater than 100 µM; in the test with UACC-62 melanoma, greater than 100 µM; with MDA-MB-231 breast, greater than 100 µM; with TK-10 renal, greater than 100 µM. Further, the TGI in the test on SF-539 CNS is greater than 100 µM; with MALME-3M melanoma, 79.6 µM; in the test on IGROV1 ovarian, greater than 100 µM; with MDA-MB-435, greater than 100 µM.

As to `Cc1ccc(/C=C/c2c(C(=O)/C=C/c3ccc(Cl)cc3)c(C)nc3ccccc23)cc1`, the GI50 in the test with COLO 205 colon is 2.17 µM; in the test with SF-268 CNS, 2.15 µM; with CAKI-1 renal, 1.27 µM; in the test with UACC-62 melanoma it was 1.75 µM; with MDA-MB-231 breast it was 1.77 µM; in the test on TK-10 renal, 2.53 µM. For the same compound, the GI50 with SF-539 CNS is 1.81 µM; in the test on MALME-3M melanoma, 1.74 µM; in the test on IGROV1 ovarian, 1.03 µM; in the test on MDA-MB-435 it was 2.05 µM. The TGI in the test with COLO 205 colon stood at 5.46 µM; in the test on SF-268 CNS, 5.85 µM; in the test with CAKI-1 renal it was 2.74 µM; in the test with UACC-62 melanoma it was 3.72 µM; with MDA-MB-231 breast, 3.68 µM; in the test on TK-10 renal, 4.84 µM. Also, the TGI with SF-539 CNS was found to be 3.3 µM; in the test on MALME-3M melanoma, 3.17 µM; with IGROV1 ovarian, 2.38 µM; in the test on MDA-MB-435 it was 4.22 µM.

Consider `COc1ccc(Cl)cc1Nc1nc(C(F)(F)F)ccc1C(=O)N/N=C/c1cccnc1`, for which the GI50 in the test on COLO 205 colon is 2.58 µM; in the test on SF-268 CNS it was 2.52 µM; in the test with CAKI-1 renal, 3.84 µM; in the test with UACC-62 melanoma, 3.69 µM; in the test with MDA-MB-231 breast it was 4.51 µM; in the test with TK-10 renal it was 5.9 µM. Moreover, the GI50 was 5.12 µM in the test on SF-539 CNS, 2.55 µM in the test on MALME-3M melanoma, 4.33 µM in the test on IGROV1 ovarian and 5.63 µM in the test on MDA-MB-435. For the same compound, the TGI with COLO 205 colon was greater than 100 µM; in the test on SF-268 CNS it was 61.5 µM; in the test on CAKI-1 renal, greater than 100 µM; in the test on UACC-62 melanoma, greater than 100 µM; in the test with MDA-MB-231 breast, greater than 100 µM; with TK-10 renal it was greater than 100 µM. For the same compound, the TGI with SF-539 CNS, in the test on MALME-3M melanoma, in the test on IGROV1 ovarian and in the test on MDA-MB-435 was greater than 100 µM in each case.

As to `O=CNc1ccc(S(=O)(=O)c2ccc(NC=O)cc2)cc1`, the TGI in the test with COLO 205 colon, in the test with SF-268 CNS, in the test on CAKI-1 renal, with UACC-62 melanoma, with MDA-MB-231 breast and with TK-10 renal was greater than 100 µM in each case. Besides, the TGI with SF-539 CNS, in the test on MALME-3M melanoma, in the test on IGROV1 ovarian and with MDA-MB-435 was greater than 100 µM each time.

For orientation: GI50 means the concentration at which growth is held to half of that of the control. As usually defined, the TGI is the concentration giving total growth inhibition.
